Laboratory results from PubChem BioAssay (NCI).
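Step 1: Grow cells in 96-well plates. Step 2: Expose to compound for 48 hours at 5 concentrations. Step 3: Interpolate endpoints linearly; if unreached, use highest concentration. GI50 marks 50% less growth. TGI marks complete inhibition of growth.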

Assays:
Assay in all cases: NCI-60 cell line screen, 48 h
[1] = system: SN12C renal
[2] = system: T-47D breast
[3] = system: EKVX NSCLC
[4] = system: SF-295 CNS
[5] = system: SR leukemia
[6] = system: U251 CNS
[7] = system: NCI-H23 lung
[8] = system: HOP-92 NSCLC
[9] = system: SF-539 CNS
[10] = system: UACC-257 melanoma
[11] = system: LOX IMVI melanoma
[12] = system: UO-31 renal
[13] = system: HCT-15 colon
[14] = system: MCF7 breast
[15] = system: UACC-62 melanoma
[16] = system: SK-MEL-5 melanoma
[17] = system: OVCAR-5 ovarian
[18] = system: OVCAR-4 ovarian
[19] = system: TK-10 renal
[20] = system: A549 NSCLC
[21] = system: SK-MEL-28 melanoma
[22] = system: NCI/ADR-RES ovarian
[23] = system: MOLT-4 leukemia
[24] = system: NCI-H522 lung
[25] = system: MDA-MB-231 breast
[26] = system: 786-0 renal
[27] = system: SNB-19 CNS
[28] = system: SW-620 colon
[29] = system: BT-549 breast
[30] = system: SK-OV-3 ovarian
[31] = system: OVCAR-8 ovarian
[32] = system: ACHN renal
[33] = system: SNB-75 CNS
[34] = system: HCT-116 colon
[35] = system: HT29 colon
[36] = system: HOP-62 NSCLC
[37] = system: M14 melanoma
[38] = system: MDA-MB-435
[39] = system: HL-60(TB) leukemia
[40] = system: HS 578T breast
[41] = system: NCI-H226 lung
[42] = system: HCC-2998 colon
[43] = system: PC-3 prostate
[44] = system: SK-MEL-2 melanoma
[45] = system: OVCAR-3 ovarian
[46] = system: RXF 393 renal
[47] = system: CCRF-CEM leukemia
[48] = system: KM12 colon
[49] = system: DU-145 prostate
[50] = system: MALME-3M melanoma
[51] = system: CAKI-1 renal
[52] = system: IGROV1 ovarian
[53] = system: NCI-H460 lung
[54] = system: K-562 leukemia
[55] = system: RPMI-8226 leukemia
[56] = system: COLO 205 colon
[57] = system: SF-268 CNS

CN1CCN(CCCOC(=O)c2c3c(n4ccccc24)C(=O)c2ncccc2C3=O)CC1
GI50 [1]: < 10 nM | TGI [1]: 294 nM | GI50 [2]: 1890 nM | TGI [2]: 29600 nM | GI50 [3]: 45.6 nM | TGI [3]: 12600 nM | GI50 [4]: < 11.7 nM | TGI [4]: 199 nM | GI50 [5]: < 10 nM | TGI [5]: > 100000 nM | GI50 [6]: < 10 nM | TGI [6]: 76.8 nM | GI50 [7]: < 10 nM | TGI [7]: < 17.2 nM | GI50 [8]: 254 nM | TGI [8]: 16800 nM | GI50 [9]: < 15.4 nM | TGI [9]: 103 nM | GI50 [10]: 21.9 nM | TGI [10]: 1300 nM | GI50 [11]: < 10 nM | TGI [11]: 33.4 nM | GI50 [12]: < 10 nM | GI50 [13]: < 14.3 nM | TGI [13]: 1520 nM | GI50 [14]: < 10 nM | TGI [14]: 17.8 nM | GI50 [15]: < 10 nM | TGI [15]: 32.4 nM | GI50 [16]: 26.9 nM | TGI [16]: 592 nM | GI50 [17]: 357 nM | TGI [17]: 3650 nM | GI50 [18]: 537 nM | TGI [18]: 3780 nM | GI50 [19]: 113 nM | TGI [19]: 21600 nM | GI50 [20]: < 10 nM | TGI [20]: 59.3 nM | GI50 [21]: 80 nM | TGI [21]: 4250 nM | GI50 [22]: < 10.7 nM | TGI [22]: 12900 nM | GI50 [23]: 60.4 nM | TGI [23]: 23400 nM | GI50 [24]: < 10 nM | TGI [24]: < 16.4 nM | GI50 [25]: 2530 nM | TGI [25]: 37200 nM | GI50 [26]: < 10 nM | TGI [26]: 40.7 nM | GI50 [27]: < 10 nM | TGI [27]: 1450 nM | GI50 [28]: < 10 nM | TGI [28]: 38.5 nM | GI50 [29]: 426 nM | TGI [29]: 16300 nM | GI50 [30]: < 10 nM | TGI [30]: 27.8 nM | GI50 [31]: < 11 nM | TGI [31]: 11900 nM | GI50 [32]: < 10 nM | TGI [32]: 15.4 nM | GI50 [33]: < 14.2 nM | TGI [33]: 105 nM | GI50 [34]: < 10 nM | TGI [34]: 2910 nM | GI50 [35]: 164 nM | TGI [35]: 2180 nM | GI50 [36]: < 10 nM | TGI [36]: 39.3 nM | GI50 [37]: < 14.9 nM | TGI [37]: 253 nM | GI50 [38]: 14.2 nM | TGI [38]: 162 nM | GI50 [39]: 68.4 nM | TGI [39]: 14600 nM | GI50 [40]: < 26.8 nM | TGI [40]: 1150 nM | GI50 [41]: 17.8 nM | TGI [41]: 1080 nM | GI50 [42]: < 13.5 nM | TGI [42]: 1980 nM | GI50 [43]: < 23.2 nM | TGI [43]: 16700 nM | GI50 [44]: 31.3 nM | TGI [44]: 274 nM | GI50 [45]: 40.3 nM | TGI [45]: 4950 nM | GI50 [46]: < 11.8 nM | TGI [46]: 30.3 nM | GI50 [47]: 41 nM | TGI [47]: > 30400 nM | GI50 [48]: 66.9 nM | TGI [48]: 13800 nM | GI50 [49]: < 10 nM | TGI [49]: 1300 nM | GI50 [50]: 26.5 nM | TGI [50]: 1140 nM | GI50 [51]: < 10 nM | TGI [51]: 366 nM | GI50 [52]: < 19.4 nM | TGI [52]: 4710 nM | GI50 [53]: < 10 nM | TGI [53]: < 11.8 nM | GI50 [54]: < 11.3 nM | GI50 [55]: 65.3 nM | GI50 [56]: < 33.2 nM | TGI [56]: 1170 nM | GI50 [57]: < 10 nM | TGI [57]: 10300 nM
